From PMC9090415, “Discovery of small molecule inhibitors of Plasmodium falciparum apicoplast DNA polymerase” (Journal of Enzyme Inhibition and Medicinal Chemistry, 2022)

Target: P. falciparum apicoplast DNA polymerase (Pf-apPOL) (Plasmodium falciparum, UniProt Q8ILY1)
Experiment: Fluorescence-based high-throughput DNA polymerase assay (molecular beacon), primary screen and dose-response;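 for % inhibition ApPOL 90': test concentration in µM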;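 for % inhibition apPOL 180': test concentration in µM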
Format: biochemical
Method in brief: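 Single-point screening used 10 µM compound with 20 nM polymerase, 20 nM hairpin substrate and 6 µM dNTPs for 90 min at 25 °C. Confirmatory titrations (2.5–80 µM) followed fluorescence at three times, and IC50 was derived from a fit including a cooperativity term n.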

[1] = primary screen value of the 186 hits; unit not given; 90 min, 10 µM

Chain of P. falciparum apicoplast DNA polymerase (Pf-apPOL) (Q8ILY1 entry or part of it): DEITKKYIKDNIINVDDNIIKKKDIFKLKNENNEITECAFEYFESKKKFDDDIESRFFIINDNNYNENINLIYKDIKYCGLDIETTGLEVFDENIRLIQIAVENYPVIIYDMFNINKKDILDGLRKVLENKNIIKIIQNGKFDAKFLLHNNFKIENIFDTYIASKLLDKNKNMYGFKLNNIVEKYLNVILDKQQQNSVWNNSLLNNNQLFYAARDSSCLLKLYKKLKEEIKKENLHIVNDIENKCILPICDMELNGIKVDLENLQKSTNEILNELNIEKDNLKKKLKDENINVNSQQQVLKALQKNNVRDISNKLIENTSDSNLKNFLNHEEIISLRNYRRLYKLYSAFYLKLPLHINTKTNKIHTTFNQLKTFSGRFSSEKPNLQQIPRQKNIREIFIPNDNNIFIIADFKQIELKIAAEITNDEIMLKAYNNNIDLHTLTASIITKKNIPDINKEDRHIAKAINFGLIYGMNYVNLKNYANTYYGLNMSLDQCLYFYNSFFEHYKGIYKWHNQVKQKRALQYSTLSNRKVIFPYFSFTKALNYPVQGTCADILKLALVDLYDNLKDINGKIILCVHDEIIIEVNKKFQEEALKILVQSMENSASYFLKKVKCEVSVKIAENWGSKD

O=C(O)c1nc(-c2ccccc2)nc2c1OCO2 [Molecule 45, OC(=O)c1nc(nc2c1OCO2)c1ccccc1]
% inhibition Apo pol 10' (DRC-1; concentration 2.5; 10'): 6.785% | % inhibition Apol 90' (DRC-1; concentration 2.5; 90'): -0.7182% | % inhibition apPOL 180' (DRC-1; concentration 2.5; 180'): -6.279% | % inhibition Apo pol 10' (DRC-1; concentration 5; 10'): 18.6858% | % inhibition Apol 90' (DRC-1; concentration 5; 90'): 2.776% | % inhibition apPOL 180' (DRC-1; concentration 5; 180'): -4.7971% | % inhibition Apo pol 10' (DRC-1; concentration 10; 10'): 46.4099% | % inhibition Apol 90' (DRC-1; concentration 10; 90'): 22.6615% | % inhibition apPOL 180' (DRC-1; concentration 10; 180'): 10.4504% | % inhibition Apo pol 10' (DRC-1; concentration 20; 10'): 71.5187% | % inhibition Apol 90' (DRC-1; concentration 20; 90'): 46.4112% | % inhibition apPOL 180' (DRC-1; concentration 20; 180'): 26.9983% | % inhibition Apo pol 10' (DRC-1; concentration 40; 10'): 89.2051% | % inhibition Apol 90' (DRC-1; concentration 40; 90'): 75.6472% | % inhibition apPOL 180' (DRC-1; concentration 40; 180'): 64.3043% | % inhibition Apo pol 10' (DRC-1; concentration 80 (unit not given); 10'): 95.8219% | % inhibition Apol 90' (DRC-1; concentration 80; 90'): 92.7909% | % inhibition apPOL 180' (DRC-1; concentration 80; 180'): 90.3482% | % inhibition Apol 40' (DRC-2; 40'; concentration 2.5): 7% | % inhibition Apol 40' (DRC-2; 40'; concentration 10): 34% | % inhibition Apol 40' (DRC-2; 40'; concentration 40): 69% | % inhibition ApPOL 90' (DRC-2; 90'; concentration 5): 7% | % inhibition ApPOL 90' (DRC-2; 90'; concentration 40): 69% | % inhibition apPOL 180' (DRC-2; 180'; concentration 20): 34% | % inhibition Apo pol 5' (DRC-2; concentration 2.5; 5'): 13% | % inhibition Apol 40' (DRC-2; concentration 2.5; 40'): 7% | % inhibition ApPOL 90' (DRC-2; concentration 2.5; 90'): 4% | % inhibition apPOL 180' (DRC-2; concentration 2.5; 180'): -1.61% | % inhibition Apo pol 5' (DRC-2; concentration 5; 5'): 24% | % inhibition Apol 40' (DRC-2; concentration 5; 40'): 14% | % inhibition ApPOL 90' (DRC-2; concentration 5; 90'): 7% | % inhibition apPOL 180' (DRC-2; concentration 5; 180'): -1.28% | % inhibition Apo pol 5' (DRC-2; concentration 10; 5'): 42% | % inhibition Apol 40' (DRC-2; concentration 10; 40'): 34% | % inhibition ApPOL 90' (DRC-2; concentration 10; 90'): 27% | % inhibition apPOL 180' (DRC-2; concentration 10; 180'): 17% | % inhibition Apo pol 5' (DRC-2; concentration 20; 5'): 50% | % inhibition Apol 40' (DRC-2; concentration 20; 40'): 51% | % inhibition ApPOL 90' (DRC-2; concentration 20; 90'): 45% | % inhibition apPOL 180' (DRC-2; concentration 20; 180'): 34% | % inhibition Apo pol 5' (DRC-2; concentration 40; 5'): 58% | % inhibition Apol 40' (DRC-2; concentration 40; 40'): 69% | % inhibition ApPOL 90' (DRC-2; concentration 40; 90'): 69% | % inhibition apPOL 180' (DRC-2; concentration 40; 180'): 68% | % inhibition Apo pol 5' (DRC-2; concentration 80; 5'): 60% | % inhibition Apol 40' (DRC-2; concentration 80; 40'): 77% | % inhibition ApPOL 90' (DRC-2; concentration 80; 90'): 80% | % inhibition apPOL 180' (DRC-2; concentration 80; 180'): 82% | DNA Pol [1]: 34 | DNA Pol (primary screen value; head prints only 'DNA Pol'; 90 min, 10 µM): 34

O=C(Nc1c2c(nn1-c1ccc(Oc3ccccc3)cc1)CSC2)c1ccco1 [KU0055927]
% inhibition Apo pol 10' (DRC-1; 10'; concentration 2.5): 13.8958% | % inhibition Apo pol 10' (DRC-1; 10'; concentration 5): 29.5283% | % inhibition Apo pol 10' (DRC-1; 10'; concentration 10): 43.1911% | % inhibition Apo pol 10' (DRC-1; 10'; concentration 20): 76.7664% | % inhibition Apo pol 10' (DRC-1; 10'; concentration 40): 85.1313% | % inhibition Apo pol 10' (DRC-1; 10'; concentration 80): 86.5336% | % inhibition Apol 90' (DRC-1; 90'; concentration 2.5): 4.683% | % inhibition Apol 90' (DRC-1; 90'; concentration 5): 16.7633% | % inhibition Apol 90' (DRC-1; 90'; concentration 10): 30.4357% | % inhibition Apol 90' (DRC-1; 90'; concentration 20): 68.2983% | % inhibition Apol 90' (DRC-1; 90'; concentration 40): 80.3407% | % inhibition Apol 90' (DRC-1; 90'; concentration 80): 86.0743% | % inhibition apPOL 180' (DRC-1; 180'; concentration 2.5): -2.927% | % inhibition apPOL 180' (DRC-1; 180'; concentration 5): 5.714% | % inhibition apPOL 180' (DRC-1; 180'; concentration 10): 15.8435% | % inhibition apPOL 180' (DRC-1; 180'; concentration 20): 54.9886% | % inhibition apPOL 180' (DRC-1; 180'; concentration 40): 72.0227% | % inhibition apPOL 180' (DRC-1; 180'; concentration 80): 82.6026% | % inhibition Apol 40' (DRC-2, 40', concentration 5 (unit not given)): 12% | % inhibition Apol 40' (DRC-2, 40', concentration 40 (unit not given)): 69% | % inhibition apPOL 180' (DRC-2, 180', concentration 40 (unit not given)): 69% | % inhibition Apo pol 5' (DRC-2; 5'; concentration 2.5): 8.44% | % inhibition Apo pol 5' (DRC-2; 5'; concentration 5): 12% | % inhibition Apo pol 5' (DRC-2; 5'; concentration 5 (unit not given)): 12% | % inhibition Apo pol 5' (DRC-2; 5'; concentration 10): 40% | % inhibition Apo pol 5' (DRC-2; 5'; concentration 20): 51% | % inhibition Apo pol 5' (DRC-2; 5'; concentration 40): 54% | % inhibition Apo pol 5' (DRC-2; 5'; concentration 80): 55% | % inhibition Apol 40' (DRC-2; 40'; concentration 2.5): 9% | % inhibition Apol 40' (DRC-2; 40'; concentration 5): 12% | % inhibition Apol 40' (DRC-2; 40'; concentration 10): 47% | % inhibition Apol 40' (DRC-2; 40'; concentration 20): 65% | % inhibition Apol 40' (DRC-2; 40'; concentration 40): 69% | % inhibition Apol 40' (DRC-2; 40'; concentration 80): 72% | % inhibition ApPOL 90' (DRC-2; 90'; concentration 2.5): 7% | % inhibition ApPOL 90' (DRC-2; 90'; concentration 5): 9.5% | % inhibition ApPOL 90' (DRC-2; 90'; concentration 10): 45% | % inhibition ApPOL 90' (DRC-2; 90'; concentration 20): 66% | % inhibition ApPOL 90' (DRC-2; 90'; concentration 40): 71% | % inhibition ApPOL 90' (DRC-2; 90'; concentration 80): 75% | % inhibition apPOL 180' (DRC-2; 180'; concentration 2.5): 4% | % inhibition apPOL 180' (DRC-2; 180'; concentration 5): 3.19% | % inhibition apPOL 180' (DRC-2; 180'; concentration 10): 35% | % inhibition apPOL 180' (DRC-2; 180'; concentration 20): 62% | % inhibition apPOL 180' (DRC-2; 180'; concentration 40): 69% | % inhibition apPOL 180' (DRC-2; 180'; concentration 80): 77% | DNA Pol [1]: 57 | DNA Pol (primary screen value, head "DNA Pol", unit not given; 90 min, 10 µM): 57

O=C(O)CC1=NN(c2cccc([N+](=O)[O-])c2)C(=O)C1 [KU0100531]
DNA Pol ('DNA Pol'; screening value, unit not given; 90 min, 10 µM): 37 | % inhibition Apo pol 10' (DRC-1; 10'; concentration 2.5): 32.2581% | % inhibition Apo pol 10' (DRC-1; 10'; concentration 5): 49.6373% | % inhibition Apo pol 10' (DRC-1; 10'; concentration 10): 61.4137% | % inhibition Apo pol 10' (DRC-1; 10'; concentration 20): 68.5645% | % inhibition Apo pol 10' (DRC-1; 10'; concentration 40): 76.8361% | % inhibition Apo pol 10' (DRC-1; 10'; concentration 80): 88.3009% | % inhibition Apol 90' (DRC-1; 90'; concentration 2.5): 15.7319% | % inhibition Apol 90' (DRC-1; 90'; concentration 5): 18.7201% | % inhibition Apol 90' (DRC-1; 90'; concentration 10): 28.2695% | % inhibition Apol 90' (DRC-1; 90'; concentration 20): 34.3533% | % inhibition Apol 90' (DRC-1; 90'; concentration 40): 46.1706% | % inhibition Apol 90' (DRC-1; 90'; concentration 80): 68.1347% | % inhibition apPOL 180' (DRC-1; 180'; concentration 2.5): 13.4028% | % inhibition apPOL 180' (DRC-1; 180'; concentration 5): 8.316% | % inhibition apPOL 180' (DRC-1; 180'; concentration 10): 15.9728% | % inhibition apPOL 180' (DRC-1; 180'; concentration 20): 20.4489% | % inhibition apPOL 180' (DRC-1; 180'; concentration 40): 28.0717% | % inhibition apPOL 180' (DRC-1; 180'; concentration 80): 50.5655% | % inhibition Apo pol 5' (DRC-2, 5', concentration 2.5): 25% | % inhibition Apo pol 5' (DRC-2, 5', concentration 5): 36% | % inhibition Apo pol 5' (DRC-2, 5', concentration 10): 45% | % inhibition Apo pol 5' (DRC-2, 5', concentration 20): 50% | % inhibition Apo pol 5' (DRC-2, 5', concentration 40): 58% | % inhibition Apo pol 5' (DRC-2, 5', concentration 80): 66% | % inhibition Apol 40' (DRC-2, 40', concentration 2.5): 12% | % inhibition Apol 40' (DRC-2, 40', concentration 5): 21% | % inhibition Apol 40' (DRC-2, 40', concentration 10): 32% | % inhibition Apol 40' (DRC-2, 40', concentration 20): 39% | % inhibition Apol 40' (DRC-2, 40', concentration 40): 54% | % inhibition Apol 40' (DRC-2, 40', concentration 80): 71% | % inhibition ApPOL 90' (DRC-2, 90', concentration 2.5): 6% | % inhibition ApPOL 90' (DRC-2, 90', concentration 5): 15% | % inhibition ApPOL 90' (DRC-2, 90', concentration 10): 24% | % inhibition ApPOL 90' (DRC-2, 90', concentration 20): 31% | % inhibition ApPOL 90' (DRC-2, 90', concentration 40): 48% | % inhibition ApPOL 90' (DRC-2, 90', concentration 80): 71% | % inhibition apPOL 180' (DRC-2, 180', concentration 2.5): 2% | % inhibition apPOL 180' (DRC-2, 180', concentration 5): 7.6% | % inhibition apPOL 180' (DRC-2, 180', concentration 10): 17% | % inhibition apPOL 180' (DRC-2, 180', concentration 20): 23% | % inhibition apPOL 180' (DRC-2, 180', concentration 40): 41% | % inhibition apPOL 180' (DRC-2, 180', concentration 80): 70% | % inhibition Apol 40' (conc 80 (unit not given); 40'; DRC-2): 71% | % inhibition ApPOL 90' (conc 80 (unit not given); 90'; DRC-2): 71% | DNA Pol (primary screen hit value, DNA Pol (186 hits); 90 min, 10 µM): 37
